From US20220396565A1 (Hoffmann-La Roche Inc., priority 2020, published 2022)
Counter-ions that a name gives are not always drawn.

System: Acinetobacter baumannii ATCC17961
Assay: Antimicrobial susceptibility testing: 90% growth inhibitory concentration (IC90) determination, Iso-Sensitest broth
Type: cell-based
Conditions: Acinetobacter baumannii, ATCC17961, 90% growth inhibitory concentration, Acinetobacter baumannii ATCC17961, Iso-Sensitest broth; read-out: ATCC 17961 IC90
Method in brief: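 Twofold serial dilutions (e.g. 10 to 0.02 μM final) were tested in Iso-Sensitest broth against ~5×10^(5) CFU/ml at 35±2 °C. OD600 was read every 20 min over 16 h. IC90 was derived from growth inhibition during the logarithmic phase.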

Structure (SMILES)	IC90 [nM]
COc1ccc(-c2cnc(C(=O)Nc3ccc(C(=O)N4CCN(C(=O)CCOCCN)CC4)c(Cl)c3)n2C)c(F)c1F [Example 246, N-[4-[4-[3-(2-aminoethoxy)propanoyl]piperazine-1-carbonyl]-3-chloro-phenyl]-5-(2,3-difluoro-4-methoxy-phenyl)-1-methyl-imidazole-2-carboxamide formate]	100
Cn1c(-c2ccc(OCF)c(Cl)c2F)cnc1C(=O)Nc1ccc(C(=O)N2CCN(C(=O)[C@@H]3C[C@@H](O)CN3)CC2)c(Cl)c1 [Example 247, 5-[3-chloro-2-fluoro-4-(fluoromethoxy)phenyl]-N-[3-chloro-4-[4-[(2S,4R)-4-hydroxypyrrolidine-2-carbonyl]piperazine-1-carbonyl]phenyl]-1-methyl-imidazole-2-carboxamide]	30
Cc1cc(NC(=O)c2ncc(-c3ccc(OCF)c(Cl)c3F)n2C)ccc1C(=O)N1CCN(C(=O)[C@@H]2C[C@@H](O)CN2)CC1 [Example 248, 5-[3-chloro-2-fluoro-4-(fluoromethoxy)phenyl]-N-[4-[4-[(2S,4R)-4-hydroxypyrrolidine-2-carbonyl]piperazine-1-carbonyl]-3-methyl-phenyl]-1-methyl-imidazole-2-carboxamide]	50
Cn1c(-c2ccc(OC(F)F)c(F)c2F)cnc1C(=O)Nc1ccc(C(=O)N2CCN(C(=O)C3CCNCC3)CC2)c(Cl)c1 [Example 249, N-[3-chloro-4-[4-(piperidine-4-carbonyl)piperazine-1-carbonyl]phenyl]-5-[4-(difluoromethoxy)-2,3-difluoro-phenyl]-1-methyl-imidazole-2-carboxamide formate]	30
COc1ccc(-c2cnc(C(=O)Nc3ccc(C(=O)N4CCC(C(=O)NC5CNC5)CC4)c(Cl)c3)n2C)c(F)c1F [Example 250, N-(azetidin-3-yl)-1-[2-chloro-4-[[5-(2,3-difluoro-4-methoxy-phenyl)-1-methyl-imidazole-2-carbonyl]amino]benzoyl] piperidine-4-carboxamide trifluoroacetate]	80
Cn1c(-c2ccc(OCC#N)c(F)c2Cl)cnc1C(=O)Nc1ccc(C(=O)N2CCN(C(=O)C3(O)CCNCC3)CC2)c(Cl)c1 [Example 251, 5-[2-chloro-4-(cyanomethoxy)-3-fluoro-phenyl]-N-[3-chloro-4-[4-(4-hydroxypiperidine-4-carbonyl)piperazine-1-carbonyl]phenyl]-1-methyl-imidazole-2-carboxamide formate]	50
Cn1c(-c2ccc(OCC#N)c(F)c2Cl)cnc1C(=O)Nc1ccc(C(=O)N2CCN(C(=O)C3CCNCC3)CC2)c(Cl)c1 [Example 252, 5-[2-chloro-4-(cyanomethoxy)-3-fluoro-phenyl]-N-[3-chloro-4-[4-(piperidine-4-carbonyl)piperazine-1-carbonyl]phenyl]-1-methyl-imidazole-2-carboxamide formate]	60
Cn1c(-c2ccc(OCC#N)c(F)c2Cl)cnc1C(=O)Nc1ccc(C(=O)N2CCN(C(=O)[C@H]3CCNC3)CC2)c(Cl)c1 [Example 253, 5-[2-chloro-4-(cyanomethoxy)-3-fluoro-phenyl]-N-[3-chloro-4-[4-[(3S)-pyrrolidine-3-carbonyl]piperazine-1-carbonyl]phenyl]-1-methyl-imidazole-2-carboxamide formate]	50
Cn1c(-c2ccc(OCC#N)c(F)c2Cl)cnc1C(=O)Nc1ccc(C(=O)N2CCN(C(=O)[C@@H]3CCNC3)CC2)c(Cl)c1 [Example 254, 5-[2-chloro-4-(cyanomethoxy)-3-fluoro-phenyl]-N-[3-chloro-4-[4-[(3R)-pyrrolidine-3-carbonyl]piperazine-1-carbonyl]phenyl]-1-methyl-imidazole-2-carboxamide formate]	40
COCCOc1ccc(-c2cnc(C(=O)Nc3ccc(C(=O)N4CCN(C(=O)C5CCNCC5)CC4)c(Cl)c3)n2C)c(F)c1F [Example 255, N-[3-chloro-4-[4-(piperidine-4-carbonyl)piperazine-1-carbonyl]phenyl]-5-[2,3-difluoro-4-(2-methoxyethoxy)phenyl]-1-methyl-imidazole-2-carboxamide formate]	590
Cn1c(-c2ccc(CC#N)cc2F)cnc1C(=O)Nc1ccc(C(=O)N2CCN(C(=O)C3CCNCC3)CC2)c(Cl)c1 [Example 256, N-[3-chloro-4-[4-(piperidine-4-carbonyl)piperazine-1-carbonyl]phenyl]-5-[4-(cyanomethyl)-2-fluoro-phenyl]-1-methyl-imidazole-2-carboxamide formate]	8700

Second part, the molecule after the results:

IC90 [nM]	Structure (SMILES)
230	COc1ccc(-c2cnc(C(=O)Nc3ccc(C(=O)N4CCN(C(=O)C5CCNCC5)CC4)c(Cl)c3)n2C)c(F)c1OC [Example 257, N-[3-chloro-4-[4-(piperidine-4-carbonyl)piperazine-1-carbonyl]phenyl]-5-(2-fluoro-3,4-dimethoxy-phenyl)-1-methyl-imidazole-2-carboxamide formate]
1120	COc1cc(-c2cnc(C(=O)Nc3ccc(C(=O)N4CCN(C(=O)C5CCNCC5)CC4)c(Cl)c3)n2C)cc(F)c1F [Example 258, N-[3-chloro-4-[4-(piperidine-4-carbonyl)piperazine-1-carbonyl]phenyl]-5-(3,4-difluoro-5-methoxy-phenyl)-1-methyl-imidazole-2-carboxamide formate]
50	Cc1c(-c2cnc(C(=O)Nc3ccc(C(=O)N4CCN(C(=O)C[C@@H]5CCNC5)CC4)c(Cl)c3)n2C)ccc(OCF)c1F [Example 259, N-[3-chloro-4-[4-[2-[(3S)-pyrrolidin-3-yl]acetyl]piperazine-1-carbonyl]phenyl]-5-[3-fluoro-4-(fluoromethoxy)-2-methyl-phenyl]-1-methyl-imidazole-2-carboxamide formate]
250	COc1ccc(-c2cnc(C(=O)Nc3ccc(C(=O)N4CCN(C(=O)C[C@@H]5CCNC5)CC4)c(Cl)c3)n2C)c(C#N)c1F [Example 260, N-[3-chloro-4-[4-[2-[(3S)-pyrrolidin-3-yl]acetyl]piperazine-1-carbonyl]phenyl]-5-(2-cyano-3-fluoro-4-methoxy-phenyl)-1-methyl-imidazole-2-carboxamide formate]
80	COc1ccc(-c2cnc(C(=O)Nc3ccc(C(=O)N4CCN(C(=O)C[C@@H]5CCNC5)CC4)c(Cl)c3)n2C)c(C(F)F)c1F [Example 261, N-[3-chloro-4-[4-[2-[(3S)-pyrrolidin-3-yl]acetyl]piperazine-1-carbonyl]phenyl]-5-[2-(difluoromethyl)-3-fluoro-4-methoxy-phenyl]-1-methyl-imidazole-2-carboxamide formate]
70	CN(C)c1ccc(-c2cnc(C(=O)Nc3ccc(C(=O)N4CCN(C(=O)C5CCNCC5)CC4)c(Cl)c3)n2C)c(F)c1F [Example 262, N-[3-chloro-4-[4-(piperidine-4-carbonyl)piperazine-1-carbonyl]phenyl]-5-[4-(dimethylamino)-2,3-difluoro-phenyl]-1-methyl-imidazole-2-carboxamide formate]
6060	CN(C)C(=O)c1ccc(-c2cnc(C(=O)Nc3ccc(C(=O)N4CCN(C(=O)C5CCNCC5)CC4)c(Cl)c3)n2C)c(F)c1F [Example 263, N-[3-chloro-4-[4-(piperidine-4-carbonyl)piperazine-1-carbonyl]phenyl]-5-[4-(dimethylcarbamoyl)-2,3-difluoro-phenyl]-1-methyl-imidazole-2-carboxamide formate]
70	COc1ccc(-c2cnc(C(=O)Nc3ccc(C(=O)N4CCN(C(=O)C5CCNCC5)CC4)c(Cl)c3)n2C)c(F)c1F [Example 265, N-[3-chloro-4-[4-(piperidine-4-carbonyl)piperazine-1-carbonyl]phenyl]-5-(2,3-difluoro-4-methoxy-phenyl)-1-methyl-imidazole-2-carboxamide hydrochloride]
70	Cn1c(-c2ccc(OCC#N)c(Cl)c2F)cnc1C(=O)Nc1ccc(C(=O)N2CCN(C(=O)C3CCNCC3)CC2)c(Cl)c1 [Example 268, 5-[3-chloro-4-(cyanomethoxy)-2-fluoro-phenyl]-N-[3-chloro-4-[4-(piperidine-4-carbonyl)piperazine-1-carbonyl]phenyl]-1-methyl-imidazole-2-carboxamide]
640	CN(C)CCN1CCN(C(=O)c2ccc(NC(=O)c3ncc(-c4ccc(Oc5ccccn5)c(F)c4F)n3C)cc2Cl)CC1 [Example 271, N-[3-chloro-4-[4-[2-(dimethylamino)ethyl]piperazine-1-carbonyl]phenyl]-5-[2,3-difluoro-4-(2-pyridyloxy)phenyl]-1-methyl-imidazole-2-carboxamide trifluoroacetate]
880	CN(C)CCN1CCN(C(=O)c2ccc(NC(=O)c3ncc(-c4ccc(Oc5ccncc5)c(F)c4F)n3C)cc2Cl)CC1 [Example 272, N-[3-chloro-4-[4-[2-(dimethylamino)ethyl]piperazine-1-carbonyl]phenyl]-5-[2,3-difluoro-4-(4-pyridyloxy)phenyl]-1-methyl-imidazole-2-carboxamide trifluoroacetate]
1300	CN(C)CCN1CCN(C(=O)c2ccc(NC(=O)c3ncc(-c4ccc(Oc5ncccn5)c(F)c4F)n3C)cc2Cl)CC1 [Example 273, N-[3-chloro-4-[4-[2-(dimethylamino)ethyl]piperazine-1-carbonyl]phenyl]-5-(2,3-difluoro-4-pyrimidin-2-yloxy-phenyl)-1-methyl-imidazole-2-carboxamide trifluoroacetate]
150	COc1ccc(-c2cnc(C(=O)Nc3ccc(C(=O)N4CCN(C(=O)CCOCCC(N)=O)CC4)c(Cl)c3)n2C)c(F)c1F [Example 279, N-(4-(4-(3-(3-Amino-3-oxopropoxy)propanoyl)piperazine-1-carbonyl)-3-chlorophenyl)-5-(2,3-difluoro-4-methoxyphenyl)-1-methyl-1H-imidazole-2-carboxamide]
